Results from article PMC5799184, “Gs- versus Golf-dependent functional selectivity mediated by the dopamine D1 receptor” (Nature Communications, 2018).

Tests used:
[1] = molecular target: T1, D1R-Rluc with β-arrestin-2-Venus (Homo sapiens, UniProt P21728); format: cell-based; settings: agonist; GRK2 co-transfected; HEK-293T cells
T1 construct: gene DRD1; D1R with N-terminal signal peptide and Flag or Myc tag, fused to Renilla luciferase 8; GRK2 co-transfected; HEK-293T cells; with Beta-arrestin-2

[2] = molecular target: T2, D2R (D2SR), Go activation (Homo sapiens, UniProt P14416); settings: partial agonist; HEK-293T cells
T2 construct: gene DRD2

D3R, Go activation = molecular target: T3, D3R, Go activation (Homo sapiens, UniProt P35462); experiment: BRET Go activation (GαoA-Rluc / γ2-GFP10); format: cell-based; settings: partial agonist; HEK-293T cells
T3 construct: gene DRD3; N-terminal signal peptide and Flag or Myc tag; co-transfected GαoA91-Rluc, Gγ2-GFP10 and untagged Gβ2; HEK-293T cells

[3] = molecular target: T4, D1R-Rluc with Golf-Venus (D1L_GolfV) (Homo sapiens, UniProt P21728); experiment: BRET receptor-Gα engagement, D1R-Rluc / Golf-Venus; format: cell-based; settings: antagonist against […] SKF81297; HEK-293T cells
T4 construct: gene DRD1; D1R with N-terminal signal peptide and Flag or Myc tag, fused to Renilla luciferase 8; Gαolf with inserted Venus; G protein chaperone Ric8B co-transfected, untagged Gβ2 and Gγ7 available; HEK-293T cells
T4 sequence (P21728 whole entry, the tested form may be a part): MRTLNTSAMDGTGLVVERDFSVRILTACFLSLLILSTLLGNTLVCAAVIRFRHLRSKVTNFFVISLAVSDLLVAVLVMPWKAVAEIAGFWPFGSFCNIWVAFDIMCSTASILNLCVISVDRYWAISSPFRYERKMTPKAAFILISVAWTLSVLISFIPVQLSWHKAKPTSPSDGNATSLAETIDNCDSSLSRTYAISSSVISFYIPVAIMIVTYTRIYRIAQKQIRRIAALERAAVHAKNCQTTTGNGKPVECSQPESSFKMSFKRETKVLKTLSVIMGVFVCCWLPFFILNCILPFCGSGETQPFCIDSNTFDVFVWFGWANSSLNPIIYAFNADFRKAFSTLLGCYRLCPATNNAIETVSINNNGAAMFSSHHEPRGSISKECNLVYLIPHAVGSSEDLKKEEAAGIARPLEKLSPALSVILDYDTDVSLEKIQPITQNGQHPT
T4 sequence (P38405 2-381 partner): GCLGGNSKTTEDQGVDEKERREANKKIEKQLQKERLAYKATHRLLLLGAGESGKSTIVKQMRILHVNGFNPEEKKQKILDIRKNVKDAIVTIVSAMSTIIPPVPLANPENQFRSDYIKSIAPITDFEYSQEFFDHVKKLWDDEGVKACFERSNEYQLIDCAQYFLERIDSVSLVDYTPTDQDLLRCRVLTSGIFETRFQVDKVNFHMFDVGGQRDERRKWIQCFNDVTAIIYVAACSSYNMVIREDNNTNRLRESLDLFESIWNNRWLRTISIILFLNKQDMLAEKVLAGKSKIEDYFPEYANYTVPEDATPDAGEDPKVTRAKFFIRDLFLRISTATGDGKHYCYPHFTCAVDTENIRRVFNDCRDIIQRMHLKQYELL

T1 sequence (P21728 whole entry, the tested form may be a part): as the sequence (P21728 whole entry, the tested form may be a part) above
T1 sequence (P32121 whole entry partner, the tested form may be a part): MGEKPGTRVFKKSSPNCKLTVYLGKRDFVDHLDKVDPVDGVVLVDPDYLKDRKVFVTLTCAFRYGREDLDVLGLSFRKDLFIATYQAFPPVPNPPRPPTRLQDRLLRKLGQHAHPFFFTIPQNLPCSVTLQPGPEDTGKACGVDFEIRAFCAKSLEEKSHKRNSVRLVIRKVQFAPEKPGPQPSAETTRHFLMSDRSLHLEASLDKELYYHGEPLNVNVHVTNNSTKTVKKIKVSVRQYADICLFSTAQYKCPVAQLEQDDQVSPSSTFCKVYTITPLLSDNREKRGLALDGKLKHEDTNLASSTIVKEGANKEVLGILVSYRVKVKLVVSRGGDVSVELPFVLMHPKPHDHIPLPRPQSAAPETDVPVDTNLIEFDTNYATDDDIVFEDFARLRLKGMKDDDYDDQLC
T2 sequence (P14416 1-414 isoform P14416-2): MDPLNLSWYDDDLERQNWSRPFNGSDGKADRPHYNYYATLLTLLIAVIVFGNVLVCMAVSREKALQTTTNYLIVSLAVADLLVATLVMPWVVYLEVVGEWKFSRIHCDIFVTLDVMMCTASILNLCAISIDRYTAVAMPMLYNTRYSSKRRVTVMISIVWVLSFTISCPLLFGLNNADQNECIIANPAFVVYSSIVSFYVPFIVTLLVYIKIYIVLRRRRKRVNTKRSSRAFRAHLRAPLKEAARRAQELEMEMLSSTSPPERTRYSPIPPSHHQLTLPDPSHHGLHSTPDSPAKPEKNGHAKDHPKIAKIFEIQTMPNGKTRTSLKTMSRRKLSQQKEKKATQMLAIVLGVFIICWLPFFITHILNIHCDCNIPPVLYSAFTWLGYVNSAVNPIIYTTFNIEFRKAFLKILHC
T2 sequence (P09471 2-354 partner): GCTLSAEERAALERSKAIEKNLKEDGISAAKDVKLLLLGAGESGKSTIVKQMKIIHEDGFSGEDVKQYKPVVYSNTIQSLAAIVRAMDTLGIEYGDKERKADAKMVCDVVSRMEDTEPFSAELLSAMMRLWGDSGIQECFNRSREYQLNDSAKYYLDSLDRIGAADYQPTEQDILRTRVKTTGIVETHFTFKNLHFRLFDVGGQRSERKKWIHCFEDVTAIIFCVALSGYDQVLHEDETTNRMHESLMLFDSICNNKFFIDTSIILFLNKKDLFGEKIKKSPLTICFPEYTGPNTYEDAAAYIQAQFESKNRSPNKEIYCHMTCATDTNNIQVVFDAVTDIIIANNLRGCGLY
T3 sequence (P35462 whole entry): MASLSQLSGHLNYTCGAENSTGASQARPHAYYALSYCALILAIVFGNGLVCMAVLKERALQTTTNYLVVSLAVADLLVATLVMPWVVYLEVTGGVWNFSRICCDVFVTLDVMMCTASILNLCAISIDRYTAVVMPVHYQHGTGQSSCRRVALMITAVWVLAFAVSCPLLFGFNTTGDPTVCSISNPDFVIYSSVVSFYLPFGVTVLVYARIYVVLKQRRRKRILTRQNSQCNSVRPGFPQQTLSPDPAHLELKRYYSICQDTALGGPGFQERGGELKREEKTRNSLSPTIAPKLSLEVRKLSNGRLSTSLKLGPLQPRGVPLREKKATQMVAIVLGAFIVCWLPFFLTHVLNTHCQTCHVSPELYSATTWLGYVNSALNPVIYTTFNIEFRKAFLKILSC
T3 sequence (P09471 2-354 partner): as the sequence (P09471 2-354 partner) above

| Structure (SMILES) | EC50 [1] | also measured |
| --- | --- | --- |
| NC[C@@H]1O[C@H](C23CC4CC(CC(C4)C2)C3)Cc2c1ccc(O)c2O [A77636] | A77636 and SKF82958 maintained their high potencies and efficacies in the β-arrestin-2 recruitment assay |  |
| Oc1cc2c(cc1O)C1c3ccccc3CNC1CC2 (centres unmarked) [DHX] | DHX and NPA behaved similarly to Gs engagement in terms of efficacy and potency | EC50 [2]: less efficacious at D2R and D3R-mediated Go activation than at D1R-mediated Gs activation; EC50 (D3R, Go activation): less efficacious at D2R and D3R-mediated Go activation than at D1R-mediated Gs activation |
| CCCN1CCc2cccc3c2[C@H]1Cc1ccc(O)c(O)c1-3 [NPA] | DHX and NPA behaved similarly to Gs engagement in terms of efficacy and potency |  |
| CN1CCc2cc(Cl)c(O)cc2[C@@H](c2ccccc2)C1 [SCH23390] |  | IC50 [3]: Dose-response curves of BRET between D1R-Rluc and Golf-Venus (same color scheme) |
| Oc1cc2c(cc1O)C(c1ccccc1)CNCC2 (centres unmarked) [SKF38393] | SKF81297 and SKF38393 showed reduced and minimal β-arrestin-2 recruitment, respectively |  |
| C=CCN1CCc2c(cc(O)c(O)c2Cl)C(c2ccccc2)C1 (centres unmarked) [SKF82958] | A77636 and SKF82958 maintained their high potencies and efficacies in the β-arrestin-2 recruitment assay |  |
